Data taken from paper PMC6152127, “Facile Synthesis of Novel Coumarin Derivatives, Antimicrobial Analysis, Enzyme Assay, Docking Study, ADMET Prediction and Toxicity Study” (Molecules : A Journal of Synthetic Chemistry and Natural …, 2017).
Values after ≈ are worked out from the molar mass of the structure shown.

Columns and labels:
[1] = test system: Aspergillus flavus (NCIM-539); assay: In vitro antifungal activity, MIC, agar method (CLSI); format: cell-based; conditions: NCIM539, average of three readings
Protocol: (§1) The newly synthesized 3-((dicyclohexylamino)(substituted phenyl/heteryl)methyl)-4-hydroxy-2H-chromen-2-one derivatives 4a–o were screened for their in vitro antifungal activity against different yeast and filamentous fungal pathogens. […] Dimethyl sulfoxide (DMSO) was used as solvent control.
(§2) All the synthesized compounds were screened for their in vitro antifungal and antibacterial activity. The antibacterial activity was evaluated against three human pathogenic bacterial strains: Escherichia coli (NCIM-2256), Bacillus subtilis (NCIM-2063) and Staphylococcus aureus (NCIM-2901). The antifungal activity was evaluated against seven human pathogenic fungal strains: Candida albicans (NCIM-3471), Candida glabrata (NCYC-388), Fusarium oxysporum (NCIM-1332), Aspergillus fumigates (NCIM-902), Aspergillus flavus (NCIM-539), Aspergillus niger (NCIM-1196) and Cryptococcus neoformans (NCIM-576), which are often encountered clinically. […] Minimum inhibitory concentration (MIC) values were determined as per CLSI guidelines. Dimethyl sulfoxide (DMSO) was used as solvent control.
(§3) Antifungal activity was determined as per CLSI (formerly, NCCLS) guidelines. […] The medium yeast nitrogen base was dissolved in phosphate buffer pH 7 and it was autoclaved at 110 °C for 10 min. With each set a growth control without the antifungal agent and solvent control DMSO were included. The fungal strains were freshly sub cultured on to Sabouraud dextrose agar (SDA) and incubated at 25 °C for 72 h. The fungal cells were suspended in sterile distilled water and diluted to get 10^5 cells/mL. Ten μL of the standardized suspension was inoculated onto the control plates and the media incorporated with the antifungal agents. The inoculated plates were incubated at 25 °C for 48 h. The readings were taken at the end of 48 h and 72 h. The MIC was the lowest concentration of drug preventing growth of macroscopically visible colonies on drug containing plates when there was visible growth on the drug free control plates.

[2] = test system: Aspergillus fumigates (NCIM-902); assay: as above; format: cell-based; conditions: NCIM902, average of three readings
Protocol: as §1, §2, §3

[3] = test system: Aspergillus niger (NCIM-1196); assay: as above; format: cell-based; conditions: NCIM1196, average of three readings
Protocol: as §1, §2, §3

[4] = test system: Candida albicans (NCIM-3471); assay: as above; format: cell-based; conditions: NCIM3471, average of three readings
Protocol: as §1, §2, §3

[5] = test system: Candida glabrata (NCYC-388); assay: as above; format: cell-based; conditions: Nakaseomyces glabratus; average of three readings
Protocol: as §1, §2, §3

[6] = test system: Cryptococcus neoformans (NCIM-576); assay: as above; format: cell-based; conditions: NCIM576, average of three readings
Protocol: as §1, §2, §3

[7] = test system: Fusarium oxysporum (NCIM-1332); assay: as above; format: cell-based; conditions: NCIM1332, average of three readings
Protocol: as §1, §2, §3

[8] = test system: Bacillus subtilis (NCIM-2063); assay: In vitro antibacterial activity, MIC; format: cell-based; conditions: average of three readings; for MIC: Bacillus subtilis, NCIM2063
Protocol: (§4) The newly synthesized compounds 4a–o were screened for their in vitro antibacterial activity against the three different bacterial strains. Minimum inhibitory concentration (MIC) values for antibacterial activity were determined by standard agar method using Ampicillin as standard drug. Dimethyl sulfoxide (DMSO) was used as solvent control. […] Compound 4e bearing a 2,4-difluoro group on the phenyl ring was 48 µg/mL for E. coli, 50 µg/mL for B. subtilis and 52 µg/mL for S. aureus.
(§5) All the synthesized compounds were screened for their in vitro antifungal and antibacterial activity. The antibacterial activity was evaluated against three human pathogenic bacterial strains: Escherichia coli (NCIM-2256), Bacillus subtilis (NCIM-2063) and Staphylococcus aureus (NCIM-2901). The antifungal activity was evaluated against seven human pathogenic fungal strains: Candida albicans (NCIM-3471), Candida glabrata (NCYC-388), Fusarium oxysporum (NCIM-1332), Aspergillus fumigates (NCIM-902), Aspergillus flavus (NCIM-539), Aspergillus niger (NCIM-1196) and Cryptococcus neoformans (NCIM-576), which are often encountered clinically. Miconazole was used as standard drug. Minimum inhibitory concentration (MIC) values were determined as per CLSI guidelines. Dimethyl sulfoxide (DMSO) was used as solvent control.
(§6) All the synthesized compounds 4a–o were screened for their in vitro antibacterial activity. Minimum inhibitory concentration (MIC) values were determined using method recommended by National Committee for Clinical Laboratory Standards (NCCLS). In vitro antibacterial activities of the synthesized compounds 4a–o were tested in Nutrient Broth (NB) for bacteria by the two fold serial dilution method. Seeded broth (broth containing microbial spores) was prepared in NB from 24 h old bacterial cultures on nutrient agar (Hi-media) at 37± 1 °C. The bacterial suspension was adjusted with sterile saline to a concentration of 1× 10^−4–10^−5 C.F.U. The synthesized compounds and standard drug Ampicillin were prepared by two fold serial dilutions to obtain the required concentrations of 400, 200, 100, 50, 25, 12.5, 6.25 and 3.13 μg/mL. The tubes were incubated in BOD incubators at 37± 1 °C for bacteria. The MICs were recorded by visual observations after 24 h (for bacteria) of incubation.

[9] = test system: Escherichia coli (NCIM-2256); assay: In vitro antibacterial activity, MIC; format: cell-based; conditions: average of three readings; for MIC: Escherichia coli, NCIM2256
Protocol: as §4, §5, §6

[10] = test system: Staphylococcus aureus (NCIM-2901); assay: In vitro antibacterial activity, MIC; format: cell-based; conditions: average of three readings; for MIC: Staphylococcus aureus, NCIM2901
Protocol: as §4, §5, §6

[11] = test system: HeLa (Human cervical cancer cell line); assay: In vitro cytotoxicity, Sulforhodamine B (SRB) assay; format: cell-based; conditions: for GI50: Homo sapiens, HeLa, SRB assay, concentration range 50 to 0.78 μg/mL; for cell inhibition HeLa: up to 50 µg/mL concentration, Figure 4
Protocol: To examine the safety of the synthesized compounds, the compounds 4e and 4k were evaluated for their toxicity against the HeLa human cervical cancer cell line by a Sulforhodamine B (SRB) assay using Adriamycin as a standard drug.
In vitro cytotoxicity study of the synthesized compounds 4e and 4k was performed against HeLa (Human cervical cancer cell line) by Sulforhodamine B (SRB) assay using Adriamycin as positive control. The images were captured using an Eclipse Ti-S Inverted Research Microscope (Nikon, Tokyo, Japan). Image processing software used was NIS-Elements.

[12] = test system: Swiss albino mice; assay: In vivo acute oral toxicity study and behavioral study (OECD guideline no. 425); parameters: key to Straub Tail / Pilo Erection / Convulsions / Normal Motor Activity / Stereotypy / Tremors / Sedation / Hypnosis / Muscle Spasms / Toxicity / Deaths / Eye Lacrimation / Salivation / Diarrhea / Respiration Problems: N: no; Y: yes; conditions: for Convulsions / Deaths / Diarrhea / Eye Lacrimation / Hypnosis / Muscle Spasms / Normal Motor Activity / Pilo Erection / Respiration Problems / Salivation / Sedation / Stereotypy / Straub Tail / Toxicity / Tremors: Swiss albino mice, single oral dose 100–2000 mg/kg; for lethal dose: oral, mice, body weight, no mortality up to 2000 mg/kg
Protocol: In vivo acute oral toxicity study and gross behavioral studies of the newly synthesized compounds 4e and 4k is shown in Table 5.
425 using Swiss albino mice (18–22 gm weight) quarantined at animal house at Y.B. Chavan College of Pharmacy, Aurangabad IAEC approval number CPCSEA/IAEC/P’col-52/2015-16/115. Each group consists of six mice (overnight fasted) and kept in colony cage at 25 ± 2 °C with 55% relative humidity and 12 h of light and dark cycle. A specified dose of 100, 250, 500, 750, 1000, 1500 and 2000 mg/kg body weight of mice was administered orally as a single dose. The acute toxic symptoms and the behavioral changes produced by the synthesized compounds were observed continuously for 4 h periods at 8th, 12th and 24th h on set of toxic symptoms and the gross behavioral changes were also recorded. These animals were maintained for further 10 days with observation made daily.

[13] = test system: ergosterol biosynthesis in C. albicans; assay: Ergosterol extraction and quantitation assay; format: cell-based, Candida albicans (NCIM-3471); conditions: at the MIC value (25 µg/mL), C. albicans NCIM3471
Protocol: A single Candida albicans (NCIM-3471) colony from an overnight Sabouraud dextrose agar plate culture was used to inoculate 50 mL of Sabouraud dextrose broth for control and for various concentrations of the molecules. […] The net weight of the cell pellet was determined. […] Cell suspensions were transferred to sterile borosilicate glass screw-cap tubes and were incubated in an 85 °C water bath for one hour. Following incubation, the tubes were allowed to cool. […] The heptane layer was transferred to a clean borosilicate glass screw-cap tube and stored at −20 °C. […] The absence of detectable ergosterol in extracts was indicated by a flat line.

Structure (SMILES) | MIC [1] [µg/mL] | MIC [2] [µg/mL] | MIC [3] [µg/mL] | MIC [4] [µg/mL] | MIC [5] [µg/mL] | MIC [6] [µg/mL] | MIC [7] [µg/mL] | MIC [8] [µg/mL] | MIC [9] [µg/mL] | MIC [10] [µg/mL] | GI50 [11] [µg/mL] | cell inhibition HeLa [11] | Convulsions [12] | Deaths [12] | Diarrhea [12] | Eye Lacrimation [12] | Hypnosis [12] | Muscle Spasms [12] | Normal Motor Activity [12] | Pilo Erection [12] | further results
O=c1oc2ccccc2c(O)c1C(c1ccc(F)cc1F)N(C1CCCCC1)C1CCCCC1 (stereo not drawn) [Compound 4e, 3-((Dicyclohexylamino)(2,4-difluorophenyl)methyl)-4-hydroxy-2H-chromen-2-one] | 12 (≈ 25.7 µM) | 28 (≈ 59.9 µM) | 12 (≈ 25.7 µM) | 28 (≈ 59.9 µM) | 26 (≈ 55.6 µM) | 12 (≈ 25.7 µM) | 30 (≈ 64.2 µM) | 50 (≈ 107 µM) | 48 (≈ 103 µM) | 52 (≈ 111 µM) | > 50 | did not take place | N | N | N | N | N | N | Y | N | MIC Bacillus subtilis [8]: 50 µg/mL (≈ 107 µM); MIC Escherichia coli [9]: 48 µg/mL (≈ 103 µM); MIC Staphylococcus aureus [10]: 52 µg/mL (≈ 111 µM); Respiration Problems [12]: N; Salivation [12]: N; Sedation [12]: N; Stereotypy [12]: N; Straub Tail [12]: N; Toxicity [12]: N; Tremors [12]: N; lethal dose [12]: above 2000 mg/kg
COc1cc(C(c2c(O)c3ccccc3oc2=O)N(C2CCCCC2)C2CCCCC2)ccc1O (stereo not drawn) [Compound 4k, 3-((Dicyclohexylamino)(4-hydroxy-3-methoxyphenyl)methyl)-4-hydroxy-2H-chromen-2-one] | 12 (≈ 25.1 µM) | 38 (≈ 79.6 µM) | 15 (≈ 31.4 µM) | 25 (≈ 52.3 µM) | 30 (≈ 62.8 µM) | 15 (≈ 31.4 µM) | 28 (≈ 58.6 µM) | 55 (≈ 115 µM) | 55 (≈ 115 µM) | 54 (≈ 113 µM) | > 50 | did not take place | N | N | N | N | N | N | Y | N | UV sterol profile, ergosterol peak at 281.5 nm [13]: almost a flat curve; Respiration Problems [12]: N; Salivation [12]: N; Sedation [12]: N; Stereotypy [12]: N; Straub Tail [12]: N; Toxicity [12]: N; Tremors [12]: N; lethal dose [12]: above 2000 mg/kg
